29 compounds from patent US20240116962A1, “PYRIDINE-2-AMINE DERIVATIVE AND PHARMACEUTICAL COMPOSITION AND USE THEREOF” (TSINGHUA UNIVERSITY, priority 2020, published 2024) can be followed below.

One experiment concerns the target T1, hTLR8 (Homo sapiens, UniProt Q9NR97).
T1 construct: host or cells: HEK-Blue hTLR8 (HEK293-derived reporter cells with SEAP read-out)
T1 sequence (Q9NR97 27-1041): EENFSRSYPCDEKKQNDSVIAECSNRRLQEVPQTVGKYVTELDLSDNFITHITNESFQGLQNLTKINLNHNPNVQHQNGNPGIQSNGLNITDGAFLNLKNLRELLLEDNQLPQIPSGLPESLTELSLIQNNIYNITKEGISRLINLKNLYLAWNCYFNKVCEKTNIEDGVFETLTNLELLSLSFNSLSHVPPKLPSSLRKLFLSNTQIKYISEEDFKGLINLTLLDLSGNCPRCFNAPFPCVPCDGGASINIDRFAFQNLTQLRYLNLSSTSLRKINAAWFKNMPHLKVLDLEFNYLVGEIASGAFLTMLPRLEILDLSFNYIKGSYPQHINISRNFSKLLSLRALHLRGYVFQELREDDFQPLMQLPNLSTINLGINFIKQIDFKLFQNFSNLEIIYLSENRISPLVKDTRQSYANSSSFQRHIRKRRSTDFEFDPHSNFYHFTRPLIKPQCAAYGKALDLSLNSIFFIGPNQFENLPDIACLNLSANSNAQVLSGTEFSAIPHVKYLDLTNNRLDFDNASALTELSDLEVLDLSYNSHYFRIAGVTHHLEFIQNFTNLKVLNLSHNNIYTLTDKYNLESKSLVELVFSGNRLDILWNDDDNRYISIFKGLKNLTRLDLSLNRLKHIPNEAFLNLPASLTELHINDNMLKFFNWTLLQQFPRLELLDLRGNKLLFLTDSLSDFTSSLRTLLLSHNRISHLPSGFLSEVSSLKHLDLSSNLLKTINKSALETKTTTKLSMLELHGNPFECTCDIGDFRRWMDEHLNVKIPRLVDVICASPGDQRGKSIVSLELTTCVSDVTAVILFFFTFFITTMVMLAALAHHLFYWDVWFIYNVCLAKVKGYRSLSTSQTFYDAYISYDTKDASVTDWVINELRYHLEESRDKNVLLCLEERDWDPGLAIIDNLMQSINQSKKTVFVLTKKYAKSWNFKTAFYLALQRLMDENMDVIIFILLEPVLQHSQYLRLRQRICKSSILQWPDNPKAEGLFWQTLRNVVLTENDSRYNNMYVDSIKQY
The experiment can be described thus: EC50 assay for small molecule agonists, HEK-Blue hTLR8 cells, SEAP readout. The format is cell-based. How it is done: (§1) Reagents used for cell culture and detection for HEK-Blue™ hTLR7, HEK-Blue™ hTLR8 and control HEK-Blue Nu112k were as follows: DMEM (4.5 g/L glucose), bovine serum FBS, streptomycin ([…]), penicillin (50 U/mL), Blasticidin (10 mg/mL), Zeocin™ (10 mg/mL), Normocin (50 mg/mL), and HEK-Blue™ Detection. Basal medium was as follows: DMEM +10% FBS+streptomycin+penicillin+Normocin ([…]); selective medium for resistance genes was as follows: DMEM+10% FBS+streptomycin+penicillin+Normocin (1001 μg/mL)+Blasticidin (1001 μg/mL)+Zeocin™ (1001 μg/mL).
(§2) Cell preparation: HEK-Blue™ hTLR7 and HEK-Blue™ hTLR8 cell lines were purchased from Invivogen. The cells frozen in liquid nitrogen were taken, quickly placed in a water bath at 37° C., shaken occasionally, and completely melted within 1 min. The cells were transferred to 15 mL of pre-heated basal medium and resuspended; centrifuged at 1,000 r/min for 5 min, supernatant discarded; resuspended with 1 mL of basal medium, transferred to a T25 culture flask, supplemented to 5 mL with the medium, and incubated in an incubator at 37° C.; after stable passage twice, and subjected to selective antibiotic screening: HEK-Blue™ hTLR7 or HEK-Blue™ hTLR8: 100 μg/mL Zeocin+Blasticidin (30 μg/mL), HEK-Blue Nu112-k: 100 μg/mL Zeocin. The fluid was changed 3 times a week. When the number of cells reached 70%-80%, PBS was added, and the cells were exfoliated by gently pipetting.
(§3) Activity assay steps: (1) adding a test sample to a 96-well plate at 20 μL/well (triplicate wells were set); (2) adding 20 μL of positive control (e.g., R848), and adding 20 μL of negative control (e.g., ddH2O); (3) removing a T75 culture flask from the incubator, discarding the medium, adding 5-10 mL of pre-heated PBS, and gently pipetting the cells; adding 2-5 mL of PBS to the culture flask, incubating the culture flask in the incubator for 1-2 min, and then gently pipetting the cells to make them exfoliated; (4) mixing the mixture well, and counting the cells, without centrifugation; resuspending the cells with HEK-Blue™ assay solution and adjusting the cell number, taking care not to incubate for a long time to avoid too deep background or false positive. HEK-Blue hTLR cell number was about 2.2×10^5/mL, 180 μL/well (about 40000 cells), and HEK-Blue Nu112-k cell number was about 2.8×10^5/mL, 180 μL/well (about 50000 cells). (5) incubating the cells in the incubator at 37° C. for 6-16 h, and detecting at 620-655 nm for SEAP readings.
(§4) Effect %=(mean OD of the administration group−mean OD of the H2O group at each concentration)/(mean ODmax of the positive drug group−mean OD of the H2O group)×100. EC50 was calculated by fitting Lg [concentration]-effect curves using GraphPad Prism5 software.
(§5) Experimental results: the concentration for 50% of maximal effect (EC50) refers to a corresponding concentration of small molecules that can cause 50% of the maximal agonistic effect. […] EC50 represents a potency for agonizing the TLR8 receptor, with smaller values indicating better efficacy. […] In the following table, the unit of the agonist activity is nanomole, unless otherwise specified.

For another experiment, the target named is T2, hTLR7 (Homo sapiens, UniProt Q9NYK1).
T2 construct: host or cells: HEK-Blue hTLR7 (HEK293-derived reporter cells with SEAP read-out)
T2 sequence (Q9NYK1 27-1049): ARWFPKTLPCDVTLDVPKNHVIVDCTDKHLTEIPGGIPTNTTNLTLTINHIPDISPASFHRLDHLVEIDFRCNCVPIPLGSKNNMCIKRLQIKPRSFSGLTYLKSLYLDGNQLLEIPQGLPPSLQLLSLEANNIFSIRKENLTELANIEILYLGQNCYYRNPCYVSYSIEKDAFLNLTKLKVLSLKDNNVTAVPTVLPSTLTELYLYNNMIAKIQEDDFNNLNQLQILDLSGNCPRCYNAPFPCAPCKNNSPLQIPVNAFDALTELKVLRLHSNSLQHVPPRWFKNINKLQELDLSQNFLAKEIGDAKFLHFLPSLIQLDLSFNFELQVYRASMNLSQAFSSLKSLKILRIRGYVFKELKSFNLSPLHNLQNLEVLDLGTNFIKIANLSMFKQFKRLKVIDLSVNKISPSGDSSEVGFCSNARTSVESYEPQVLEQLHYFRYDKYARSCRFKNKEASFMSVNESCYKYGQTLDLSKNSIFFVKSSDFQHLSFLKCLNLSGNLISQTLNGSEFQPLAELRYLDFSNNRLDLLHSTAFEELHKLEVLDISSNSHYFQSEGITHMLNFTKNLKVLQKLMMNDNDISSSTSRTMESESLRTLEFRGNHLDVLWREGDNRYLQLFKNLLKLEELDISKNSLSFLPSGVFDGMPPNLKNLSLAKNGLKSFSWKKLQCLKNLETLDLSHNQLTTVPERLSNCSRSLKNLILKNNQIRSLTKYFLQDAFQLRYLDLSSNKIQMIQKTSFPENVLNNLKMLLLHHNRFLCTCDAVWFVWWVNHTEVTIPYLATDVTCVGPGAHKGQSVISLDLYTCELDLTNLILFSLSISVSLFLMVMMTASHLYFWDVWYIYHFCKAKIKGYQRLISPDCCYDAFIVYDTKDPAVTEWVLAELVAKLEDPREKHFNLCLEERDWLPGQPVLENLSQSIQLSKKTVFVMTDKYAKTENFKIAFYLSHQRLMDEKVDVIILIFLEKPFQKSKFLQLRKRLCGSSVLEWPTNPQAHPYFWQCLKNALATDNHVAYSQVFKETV
Briefly: EC50 assay for small molecule agonists, HEK-Blue hTLR7 cells, SEAP readout. The format is cell-based. As to conditions: agonist activity, nd = EC50 larger than 25 μM. How it is done:
as §1, §2, §3, §4, §5

Where [1] appears, read: agonist activity, read-out: hTLR8(EC50).

Each structure is given as a SMILES string. Where two headings read alike, the source gives them in different places.

On to `COCCCc1cc(Cc2ccc(CN3CCN(C)CC3)cc2)c(C)nc1N` [Compound N30], for which the EC50 on hTLR8 (setting [1]) was above 4 µM; on hTLR7, above 25 µM.

Consider `CCCCCc1cc(Cc2ccc(CN(C)C)cc2)cnc1N` [Compound N31], for which the values for the EC50 at hTLR8 (setting [1]) and at hTLR7 were 0.248 µM and above 25 µM, respectively.

For `CCCCCc1cc(Cc2cccc(CN(C)C)c2)c(C)nc1N` [Compound N32], the EC50 is 0.29 µM on hTLR8 (setting [1]) and above 25 µM at hTLR7.

For the compound `CCCCCc1cc(Cc2ccccc2CO)c(C)nc1N` [Compound N33], the EC50 on hTLR8 (setting [1]) is above 4 µM; on hTLR7 it was above 25 µM.

As to `CCCCCc1cc(Cc2ccccc2CN(C)C)c(C)nc1N` [Compound N34], the EC50 on hTLR8 (setting [1]) was above 4 µM; at hTLR7, above 25 µM.

Regarding `CCCCCc1cc(Cc2ccccc2CN2CCCC2)c(C)nc1N` [Compound N35], the EC50 was above 4 µM at hTLR8 (setting [1]) and above 25 µM at hTLR7.

Consider `CCCCCc1cc(Cc2ccccc2CN2CCOCC2)c(C)nc1N` [Compound N36], for which the EC50 at hTLR8 (setting [1]) is above 4 µM; at hTLR7, above 25 µM.

For the compound `CCCCCc1cc(Cc2ccccc2CN)c(C)nc1N` [Compound N37], the EC50 is above 4 µM at hTLR8 (setting [1]) and above 25 µM on hTLR7.

Take `CCCCCc1cc(Cc2ccc(C(=O)N(C)C)cc2)c(C)nc1N` [Compound N38]: the EC50 was above 4 µM on hTLR8 (setting [1]) and above 25 µM on hTLR7.

As to `CCCCCc1cc(Cc2ccc(C(=O)N3CCCC3)cc2)c(C)nc1N` [Compound N39], the EC50 was above 4 µM on hTLR8 (setting [1]) and above 25 µM at hTLR7.

Turning to `CCCCCc1cc(Cc2ccc(C(=O)N3CCOCC3)cc2)c(C)nc1N` [Compound N40], the EC50 at hTLR8 (setting [1]) was above 4 µM; at hTLR7, above 25 µM.

On to `CCCCCc1cc(Cc2ccc(C(=O)N3CCN(C)CC3)cc2)c(C)nc1N` [Compound N41], for which the EC50 on hTLR8 (setting [1]) was above 4 µM; on hTLR7, above 25 µM.

For `CCCCCc1cc(Cc2ccc(CN(C)C)cc2OC)c(C)nc1N` [Compound N42], the EC50 is 0.087 µM on hTLR8 (setting [1]) and above 25 µM at hTLR7.

With `CCCCCc1cc(Cc2ccc(CN3CCCC3)cc2OC)c(C)nc1N` [Compound N43], the values for the EC50 on hTLR8 (setting [1]) and at hTLR7 were 0.102 µM and above 25 µM, respectively.

`CCCCCc1cc(Cc2ccc(CN3CCOCC3)cc2OC)c(C)nc1N` [Compound N44]: the EC50 on hTLR8 (setting [1]) is 1.13 µM; on hTLR7 it was above 25 µM.

`CCCCCc1cc(Cc2ccc(CN3CCN(C)CC3)cc2OC)c(C)nc1N` [Compound N45]: the results for the EC50 at hTLR8 (setting [1]) and on hTLR7 were 0.166 µM and above 25 µM, respectively.

With `CCCCCc1cc(Cc2ccc(CN(C)C)cc2O)c(C)nc1N` [Compound N46], the EC50 was 0.351 µM at hTLR8 (setting [1]) and above 25 µM at hTLR7.

Take `CCCCCc1cc(Cc2ccc(CN3CCCC3)cc2O)c(C)nc1N` [Compound N47]: the EC50 on hTLR8 (setting [1]) is 0.473 µM; on hTLR7, above 25 µM.

Turning to `CCCCCc1cc(Cc2ccc(CN3CCOCC3)cc2O)c(C)nc1N` [Compound N48], the EC50 at hTLR8 (setting [1]) was above 4 µM; at hTLR7, above 25 µM.

`CCCCCc1cc(Cc2ccc(CN3CCN(C)CC3)cc2O)c(C)nc1N` [Compound N49]: the EC50 on hTLR8 (setting [1]) is 0.627 µM; at hTLR7, above 25 µM.

Turning to `CCCCCc1cc(Cc2ccc(CN(C)C)cc2OC(C)=O)c(C)nc1N` [Compound N50], the EC50 on hTLR8 (setting [1]) was 0.105 µM; at hTLR7, above 25 µM.

As to `CCCCCc1cc(Cc2ccc(CN3CCCC3)cc2OC(C)=O)c(C)nc1N` [Compound N51], the EC50 was 0.175 µM at hTLR8 (setting [1]) and above 25 µM at hTLR7.

With `CCCCCc1cc(Cc2ccc(CN(C)C)cc2OC(=O)CC(C)C)c(C)nc1N` [Compound N52], the EC50 is 0.252 µM at hTLR8 (setting [1]) and above 25 µM on hTLR7.

Take `CCCCCc1cc(Cc2ccc(CN3CCN(C)CC3)cc2OC(C)=O)c(C)nc1N` [Compound N53]: the EC50 on hTLR8 (setting [1]) was 0.273 µM; on hTLR7, above 25 µM.

In the case of `CCCCCc1cc(CCc2ccc(CN(C)C)cc2)c(C)nc1N` [Compound N54], the values for the EC50 on hTLR8 (setting [1]) and on hTLR7 were 0.518 µM and above 25 µM, respectively.

As for `CCCCNc1cc(Cc2ccc(CN(C)C)cc2)c(C)nc1N` [Compound N55], the EC50 at hTLR8 (read-out: concentration for 50% of maximal effect (EC50) hTLR8) was 0.015 µM; at hTLR7, above 25 µM.

As to `CCCCNc1cc(Cc2ccc(CN3CCCC3)cc2)c(C)nc1N` [Compound N56], the EC50 at hTLR8 (setting [1]) was 0.028 µM; on hTLR7, above 25 µM.

Regarding `CCCCNc1cc(Cc2ccc(CN3CC4(COC4)C3)cc2)c(C)nc1N` [Compound N57], the EC50 at hTLR8 (setting [1]) was 0.016 µM; at hTLR7, above 25 µM.

Regarding `CCCCNc1cc(Cc2ccc(CN3CC4(COC4)C3)cc2F)c(C)nc1N` [Compound N58], the figures for the EC50 at hTLR8 (setting [1]) and at hTLR7 were 0.04 µM and above 25 µM, respectively.
